# Data as given in patent EP2468718A1, “Cabanillasin, a new antifungal compound, produced by entomopathogenic xenorhabdus cabanillasii” (Nosopharm, priority 2010, dated 2012).
# Where two headings read alike, the source gives them in different places.
# Key:
# Candida krusei ATCC 6258 = test: Antifungal susceptibility testing, NCCLS M27-A2 broth microdilution (yeasts); type: cell-based; details: Pichia kudriavzevii, ATCC6258; for inhibition at 0.09 µg/mL / inhibition at 0.19 µg/mL / inhibition at 0.39 µg/mL / inhibition at 0.78 µg/mL / inhibition at 1.56 µg/mL / inhibition at 3.12 µg/mL / inhibition at 6.25 µg/mL / inhibition at 12.5 µg/mL / inhibition at 25 µg/mL / inhibition at 50 µg/mL: read-out: % of growth inhibition
# Experimental: (§1) Cabanillasin activity was tested against different fungal human pathogens: ascomycetes yeasts (Candida albicans ATCC 90029, Candida Glabrata ATCC 90030, Candida krusei ATCC 6258 and Candida lusitaniae CBS 6936), basidiomycetes yeasts (Cryptococcus neoformans clinical strain), ascomycetes filamentous fungi (Aspergilus fumigatus clinical strain, Fusarium oxysporum clinical strain) and zygomycetes filamentous fungi (Rhizopus oryzae environemental strain) by the M38-A microdilution method with RPMI 1640 medium (RPMI 1640, MOPS 160 mM, glucose 18 g/L, pH 7) as recommended in the […]. The NCCLS M27-A2 broth microdilution method (NCCLS) was used when yeasts were tested.
# (§2) Yeasts and filamentous inoculi were prepared on YPD medium (yeast extract 10 g/L, peptone 10 g/L and glucose 20 g/L) and Malt medium (malt extract 20 g/L) respectively. The densities of inoculi were adjusted by dilution in RPMI 1640 broth to a value ranged from 5.10^2 to 5.10^3 CFU/mL for yeasts isolates and 5.10^3 to 5.10^4 CFU/mL for filamentous fungi. Microdilution trays (96 U-bottom shaped) containing 190 µL fungal inoculum were added with 10 µL Cabanillasin solution (final concentration ranging from 50 to 0.098 mg/L for all fungi). After inoculation of the trays, all microdilution trays were incubated at 35°C in ambient air. The culture absorbance was measured at 600 nm, 24 h and 48 h after the beginning of the experiments for the yeasts and 48 h and 72 h after the beginning of the experiments for filamentous fungi and Cryptococcus neoformans. The activity results correspond to a percentage of growth inhibition ((1-Abs600 nm culture with Cabanillasin)/ Abs600 nm culture without Cabanillasin) x 100.
# (§3) The IC50 value is the concentration at which inhibition of growth is equal to 50%. MICs for Candida species were determined at 24 h and 48 h and corresponded to 100% of growth inhibition. Amphotericin B was provided as standard (final concentration ranging from 16 to 0.03 mg/L for all fungi). Experiments were done in duplicate.
# [1] = test system: Candida albicans ATCC 90029; test: as above; type: cell-based; details: for inhibition at 0.09 µg/mL: ATCC90029, 0.09 µg/mL; for inhibition at 0.09 µg/mL / inhibition at 0.19 µg/mL / inhibition at 0.39 µg/mL / inhibition at 0.78 µg/mL / inhibition at 1.56 µg/mL / inhibition at 3.12 µg/mL / inhibition at 6.25 µg/mL / inhibition at 12.5 µg/mL / inhibition at 25 µg/mL / inhibition at 50 µg/mL: read-out: % of growth inhibition; for inhibition at 0.19 µg/mL: ATCC90029, 0.19 µg/mL; for inhibition at 0.39 µg/mL: ATCC90029, 0.39 µg/mL; for inhibition at 0.78 µg/mL: ATCC90029, 0.78 µg/mL; for inhibition at 1.56 µg/mL: ATCC90029, 1.56 µg/mL; for inhibition at 3.12 µg/mL: ATCC90029, 3.12 µg/mL; for inhibition at 6.25 µg/mL: ATCC90029, 6.25 µg/mL; for inhibition at 12.5 µg/mL: ATCC90029, 12.5 µg/mL; for inhibition at 25 µg/mL: ATCC90029, 25 µg/mL; for inhibition at 50 µg/mL: ATCC90029, 50 µg/mL
# Experimental: as §1, §2, §3
# [2] = test system: Aspergilus fumigatus clinical strain; test: Antifungal susceptibility testing, M38-A microdilution method (filamentous fungi); type: cell-based, Aspergillus fumigatus; details: for inhibition at 0.09 µg/mL / inhibition at 0.19 µg/mL / inhibition at 0.39 µg/mL / inhibition at 0.78 µg/mL / inhibition at 1.56 µg/mL / inhibition at 3.12 µg/mL / inhibition at 6.25 µg/mL / inhibition at 12.5 µg/mL / inhibition at 25 µg/mL / inhibition at 50 µg/mL: Aspergillus fumigatus, read-out: % of growth inhibition
# Experimental: as §1, §2, §3
# [3] = test system: Fusarium oxysporum clinical strain; test: as above; type: cell-based; details: for inhibition at 0.09 µg/mL / inhibition at 0.19 µg/mL / inhibition at 0.39 µg/mL / inhibition at 0.78 µg/mL / inhibition at 1.56 µg/mL / inhibition at 3.12 µg/mL / inhibition at 6.25 µg/mL / inhibition at 12.5 µg/mL / inhibition at 25 µg/mL / inhibition at 50 µg/mL: read-out: % of growth inhibition
# Experimental: as §1, §2, §3
# [4] = test system: Rhizopus oryzae environemental strain; test: as above; type: cell-based; details: for inhibition at 0.09 µg/mL / inhibition at 0.19 µg/mL / inhibition at 0.39 µg/mL / inhibition at 0.78 µg/mL / inhibition at 1.56 µg/mL / inhibition at 3.12 µg/mL / inhibition at 6.25 µg/mL / inhibition at 12.5 µg/mL / inhibition at 25 µg/mL / inhibition at 50 µg/mL: Rhizopus arrhizus, read-out: % of growth inhibition
# Experimental: as §1, §2, §3
smiles,measurement,setting,value
CC(=O)NC(=N)NCCCCNC(=N)NCCCCNC(=N)NCCCCNC(=N)NCCCCN [Cabanillasin],inhibition at 0.09 µg/mL,Candida krusei ATCC 6258; 24 h incubation,0%
same,inhibition at 0.09 µg/mL,Candida krusei ATCC 6258; 48 h incubation,0%
same,inhibition at 0.19 µg/mL,Candida krusei ATCC 6258; 24 h incubation,0%
same,inhibition at 0.19 µg/mL,Candida krusei ATCC 6258; 48 h incubation,0%
same,inhibition at 0.39 µg/mL,Candida krusei ATCC 6258; 24 h incubation,0%
same,inhibition at 0.39 µg/mL,Candida krusei ATCC 6258; 48 h incubation,0%
same,inhibition at 0.78 µg/mL,Candida krusei ATCC 6258; 24 h incubation,0%
same,inhibition at 0.78 µg/mL,Candida krusei ATCC 6258; 48 h incubation,0%
same,inhibition at 1.56 µg/mL,Candida krusei ATCC 6258; 24 h incubation,0%
same,inhibition at 1.56 µg/mL,Candida krusei ATCC 6258; 48 h incubation,0%
same,inhibition at 3.12 µg/mL,Candida krusei ATCC 6258; 24 h incubation,9%
same,inhibition at 3.12 µg/mL,Candida krusei ATCC 6258; 48 h incubation,0%
same,inhibition at 6.25 µg/mL,Candida krusei ATCC 6258; 24 h incubation,79%
same,inhibition at 6.25 µg/mL,Candida krusei ATCC 6258; 48 h incubation,31.2%
same,inhibition at 12.5 µg/mL,Candida krusei ATCC 6258; 24 h incubation,91%
same,inhibition at 12.5 µg/mL,Candida krusei ATCC 6258; 48 h incubation,83%
same,inhibition at 25 µg/mL,Candida krusei ATCC 6258; 24 h incubation,100%
same,inhibition at 25 µg/mL,Candida krusei ATCC 6258; 48 h incubation,88.5%
same,inhibition at 50 µg/mL,Candida krusei ATCC 6258; 24 h incubation,100%
same,inhibition at 50 µg/mL,Candida krusei ATCC 6258; 48 h incubation,92.9%
same,IC50,Candida krusei ATCC 6258; 24 h of incubation,6.25 µg/mL
same,MIC,"Candida krusei ATCC 6258; 24 h of incubation, 100% of growth inhibition",25 µg/mL
same,inhibition at 0.09 µg/mL,[1]; 24 h incubation,34%
same,inhibition at 0.09 µg/mL,[1]; 48 h incubation,0%
same,inhibition at 0.19 µg/mL,[1]; 24 h incubation,37%
same,inhibition at 0.19 µg/mL,[1]; 48 h incubation,0%
same,inhibition at 0.39 µg/mL,[1]; 24 h incubation,34%
same,inhibition at 0.39 µg/mL,[1]; 48 h incubation,0%
same,inhibition at 0.78 µg/mL,[1]; 24 h incubation,50.5%
same,inhibition at 0.78 µg/mL,[1]; 48 h incubation,0%
same,inhibition at 1.56 µg/mL,[1]; 24 h incubation,46.3%
same,inhibition at 1.56 µg/mL,[1]; 48 h incubation,0%
same,inhibition at 3.12 µg/mL,[1]; 24 h incubation,45.4%
same,inhibition at 3.12 µg/mL,[1]; 48 h incubation,0%
same,inhibition at 6.25 µg/mL,[1]; 24 h incubation,47.7%
same,inhibition at 6.25 µg/mL,[1]; 48 h incubation,0%
same,inhibition at 12.5 µg/mL,[1]; 24 h incubation,70.7%
same,inhibition at 12.5 µg/mL,[1]; 48 h incubation,0%
same,inhibition at 25 µg/mL,[1]; 24 h incubation,71%
same,inhibition at 25 µg/mL,[1]; 48 h incubation,0%
same,inhibition at 50 µg/mL,[1]; 24 h incubation,81%
same,inhibition at 50 µg/mL,[1]; 48 h incubation,18%
same,IC50,"[1]; ATCC90029, 24 h of incubation",0.78 µg/mL
same,inhibition at 0.09 µg/mL,[2]; 48 h incubation,0%
same,inhibition at 0.09 µg/mL,[2]; 72 h incubation,0%
same,inhibition at 0.19 µg/mL,[2]; 48 h incubation,0%
same,inhibition at 0.19 µg/mL,[2]; 72 h incubation,0%
same,inhibition at 0.39 µg/mL,[2]; 48 h incubation,0%
same,inhibition at 0.39 µg/mL,[2]; 72 h incubation,0%
same,inhibition at 0.78 µg/mL,[2]; 48 h incubation,0%
same,inhibition at 0.78 µg/mL,[2]; 72 h incubation,0%
same,inhibition at 1.56 µg/mL,[2]; 48 h incubation,0%
same,inhibition at 1.56 µg/mL,[2]; 72 h incubation,0%
same,inhibition at 3.12 µg/mL,[2]; 48 h incubation,0%
same,inhibition at 3.12 µg/mL,[2]; 72 h incubation,0%
same,inhibition at 6.25 µg/mL,[2]; 48 h incubation,0%
same,inhibition at 6.25 µg/mL,[2]; 72 h incubation,0%
same,inhibition at 12.5 µg/mL,[2]; 48 h incubation,0%
same,inhibition at 12.5 µg/mL,[2]; 72 h incubation,0%
same,inhibition at 25 µg/mL,[2]; 48 h incubation,0%
same,inhibition at 25 µg/mL,[2]; 72 h incubation,0%
same,inhibition at 50 µg/mL,[2]; 48 h incubation,65.2%
same,inhibition at 50 µg/mL,[2]; 72 h incubation,0%
same,activity,[2]; at 48h,weak activity
same,activity,[2]; at 72 h,no activity
same,inhibition at 0.09 µg/mL,[3]; 48 h incubation,0%
same,inhibition at 0.09 µg/mL,[3]; 72 h incubation,0%
same,inhibition at 0.19 µg/mL,[3]; 48 h incubation,0%
same,inhibition at 0.19 µg/mL,[3]; 72 h incubation,0%
same,inhibition at 0.39 µg/mL,[3]; 48 h incubation,0%
same,inhibition at 0.39 µg/mL,[3]; 72 h incubation,0%
same,inhibition at 0.78 µg/mL,[3]; 48 h incubation,0%
same,inhibition at 0.78 µg/mL,[3]; 72 h incubation,0%
same,inhibition at 1.56 µg/mL,[3]; 48 h incubation,0%
same,inhibition at 1.56 µg/mL,[3]; 72 h incubation,0%
same,inhibition at 3.12 µg/mL,[3]; 48 h incubation,32.1%
same,inhibition at 3.12 µg/mL,[3]; 72 h incubation,0%
same,inhibition at 6.25 µg/mL,[3]; 48 h incubation,68.6%
same,inhibition at 6.25 µg/mL,[3]; 72 h incubation,48.6%
same,inhibition at 12.5 µg/mL,[3]; 48 h incubation,71.6%
same,inhibition at 12.5 µg/mL,[3]; 72 h incubation,56.4%
same,inhibition at 25 µg/mL,[3]; 48 h incubation,66.6%
same,inhibition at 25 µg/mL,[3]; 72 h incubation,72.5%
same,inhibition at 50 µg/mL,[3]; 48 h incubation,80.2%
same,inhibition at 50 µg/mL,[3]; 72 h incubation,79.8%
same,IC50,[3]; incubation time not stated,6.25 µg/mL
same,inhibition at 0.09 µg/mL,[4]; 48 h incubation,0%
same,inhibition at 0.09 µg/mL,[4]; 72 h incubation,0%
same,inhibition at 0.19 µg/mL,[4]; 48 h incubation,0%
same,inhibition at 0.19 µg/mL,[4]; 72 h incubation,0%
same,inhibition at 0.39 µg/mL,[4]; 48 h incubation,0%
same,inhibition at 0.39 µg/mL,[4]; 72 h incubation,0%
same,inhibition at 0.78 µg/mL,[4]; 48 h incubation,0%
same,inhibition at 0.78 µg/mL,[4]; 72 h incubation,0%
same,inhibition at 1.56 µg/mL,[4]; 48 h incubation,0%
same,inhibition at 1.56 µg/mL,[4]; 72 h incubation,0%
same,inhibition at 3.12 µg/mL,[4]; 48 h incubation,0%
same,inhibition at 3.12 µg/mL,[4]; 72 h incubation,0%
same,inhibition at 6.25 µg/mL,[4]; 48 h incubation,0%
same,inhibition at 6.25 µg/mL,[4]; 72 h incubation,0%
same,inhibition at 12.5 µg/mL,[4]; 48 h incubation,0%
same,inhibition at 12.5 µg/mL,[4]; 72 h incubation,0%
same,inhibition at 25 µg/mL,[4]; 48 h incubation,0%
same,inhibition at 25 µg/mL,[4]; 72 h incubation,0%
same,inhibition at 50 µg/mL,[4]; 48 h incubation,40.7%
same,inhibition at 50 µg/mL,[4]; 72 h incubation,0%
same,activity,[4]; at 48h,weak activity
same,activity,[4]; at 72 h,no activity
